Laboratory results as given in patent publication US20230218644A1, “COMPOUNDS FOR USE IN THE TREATMENT OF VIRAL INFECTIONS BY RESPIRATORY SYNDROME-RELATED CORONAVIRUS” (SOM INNOVATION BIOTECH, S.A., priority 2020, published 2023).

Columns and labels:
SARS-CoV-2 3CLpro = SARS-CoV-2 3CLpro (Severe acute respiratory syndrome coronavirus 2, UniProt P0DTD1); experiment: biochemical; format: biochemical; settings: for inhibition activity against SARS-CoV-2 3CLpro in vitro (in words): FRET assay, 30 tested compounds
SARS-CoV-2 = experiment: microbe, parasite or virus in culture; format: cell-based; settings: Severe acute respiratory syndrome coronavirus 2, Vero C1008, read-out: IC50 of inhibition of cell infection
MERS-CoV 3CLpro = MERS-CoV 3CLpro (Middle East respiratory syndrome-related coronavirus, UniProt K9N7C7); experiment: biochemical
SARS-CoV-2 protease = SARS-CoV-2 protease (Severe acute respiratory syndrome coronavirus 2, UniProt P0DTD1); settings: Fu et al., Nature Comm. 2020; cited from earlier work
SARS-CoV-2 virus = settings: Vero E6 cells; Choy K. et al, Antivir. Res. 2020; read-out: IC50 antiviral effect; cited from earlier work

Chain of MERS-CoV 3CLpro (K9N7C7 3248-3553 limits assumed): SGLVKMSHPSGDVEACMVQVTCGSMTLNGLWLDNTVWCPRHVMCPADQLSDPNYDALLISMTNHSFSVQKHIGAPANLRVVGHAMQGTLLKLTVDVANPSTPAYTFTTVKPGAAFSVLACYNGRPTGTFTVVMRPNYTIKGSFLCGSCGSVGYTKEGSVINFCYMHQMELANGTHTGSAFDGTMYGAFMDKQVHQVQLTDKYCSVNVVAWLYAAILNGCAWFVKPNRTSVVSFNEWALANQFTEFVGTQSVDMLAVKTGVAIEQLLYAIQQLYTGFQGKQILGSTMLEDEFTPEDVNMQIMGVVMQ

Structure (SMILES)	inhibition activity against SARS-CoV-2 3CLpro in vitro (in words) (SARS-CoV-2 3CLpro)	IC50 (SARS-CoV-2) [µM]	IC50 (SARS-CoV-2 3CLpro) [nM]	IC50 (MERS-CoV 3CLpro) [µM]	further results
CCOC(=O)/C=C/[C@H](C[C@@H]1CCNC1=O)NC(=O)[C@@H](CC(=O)[C@@H](NC(=O)c1cc(C)on1)C(C)C)Cc1ccc(F)cc1	not active in vitro	–	–	–	–
CCN(CC)CCCC(C)Nc1ccnc2cc(Cl)ccc12 (racemic) [chloroquine, (RS)-N′-(7-chloroquinolin-4-yl)-N,N-diethyl-pentane-1,4-diamine]	–	~12	–	–	cytotoxicity / cell viability (in words) (VeroE6 cells): significant cytotoxicity
O=C(/C=C/c1ccc(O)c(O)c1)OC1CC(OC(=O)/C=C/c2ccc(O)c(O)c2)(C(=O)O)CC(O)C1O (stereo not drawn) [CYNARIN, 1,3-bis[[(E)-3-(3,4-dihydroxyphenyl)prop-2-enoyl]oxy]-4,5-dihydroxycyclohexane-1-carboxylic acid]	active in vitro	–	1810	16.7	–
CN(C)[C@@H]1C(O)=C(C(N)=O)C(=O)[C@@]2(O)C(O)=C3C(=O)c4c(O)c(NC(=O)CN5CCCC5)cc(F)c4C[C@H]3C[C@@H]12 [ERAVACYCLINE diHcl, (4S,4aS,5aR,12aS)-4-(Dimethylamido)-7-fluoro-3,10,12,12a-tetrahydroxy-1,11-dioxo-9-[(1-pyrrolidinylacetyl)amino]-1,4,4a,5,5a,6,11,12a-octahydro-2-tetracenecarboxamide]	active in vitro	30.6	1650	16.4	cytotoxicity / cell viability (in words) (VeroE6 cells): without affecting cell viability
COc1cccc(OCCCN)c1-c1cc(Nc2cnc(C#N)cn2)n[nH]1 [PREXASERTIB diHCl, 5-((5-(2-(3-Aminopropoxy)-6-methoxyphenyl)-1H-pyrazol-3-yl)amino)-2-pyrazinecarbonitrile]	active in vitro	–	2000	12.4	–
CC(C)C[C@H](NC(=O)[C@H](CCc1ccccc1)NC(=O)CN1CCOCC1)C(=O)N[C@@H](Cc1ccccc1)C(=O)N[C@@H](CC(C)C)C(=O)[C@@]1(C)CO1 [carfilzomib]	–	–	–	–	inhibition of SARS-CoV-2 protease (in words) (SARS-CoV-2 protease): failed to inhibit
CC[C@H]1CN2CCc3cc(OC)c(OC)cc3[C@@H]2C[C@@H]1C[C@H]1NCCc2cc(OC)c(OC)cc21 [emetine]	–	–	–	–	IC50 (SARS-CoV-2 virus): 460 nM
COC(=O)C[C@](O)(CCCC(C)(C)O)C(=O)O[C@@H]1C(OC)=C[C@]23CCCN2CCc2cc4c(cc2[C@H]13)OCO4 [homorringtonine, 1-((1S,3aR,14bS)-2-Methoxy-1,5,6,8,9,14b-hexahydro-4H-cyclopenta(a)(1,3)dioxolo(4,5-h)pyrrolo(2,1-b)(3)benzazepin-1-yl) 4-methyl (2R)-2-hydroxy-2-(4-hydroxy-4-methylpentyl)butanedioate]	–	–	–	–	IC50 (SARS-CoV-2 virus): 2550 nM
CCC(CC)COC(=O)[C@H](C)N[P@](=O)(OC[C@H]1O[C@@](C#N)(c2ccc3c(N)ncnn23)[C@H](O)[C@@H]1O)Oc1ccccc1 [remdesivir, (2S)-2-{(2R,3S,4R,5R)-[5-(4-Aminopyrrolo[2,1-f][1,2,4]triazin-7-yl)-5-cyano-3,4-dihydroxy-tetrahydro-furan-2-ylmethoxy]phenoxy-(S)-phosphorylamino}propionic acid 2-ethyl-butyl ester]	–	~12	–	–	–
